Test results: patent US11578074B2, “Nitrogenous heterocyclic compound, preparation method, intermediate, composition, and application” (SHANGHAI PHARMACEUTICALS HOLDING CO., LTD., priority 2017, dated 2023)
Like-named read-outs stand apart in the source and are kept apart here.

Legend:
[1] = target: T1, CYP2D6 (Homo sapiens, UniProt P10635); test: Direct inhibition (DI) of CYP2D6 in human liver microsomes; type: in vitro ADME; details: probe Dextromethorphan, human liver microsomes 0.2 mg/mL, 10 μM compound, read-out: Direct inhibition (DI) 2D6 (Dextromethorphan)
T1 construct: A system of 100 μL human liver microsomes; from tissue; host or cells: human liver microsomes
T1 sequence (P10635 whole entry): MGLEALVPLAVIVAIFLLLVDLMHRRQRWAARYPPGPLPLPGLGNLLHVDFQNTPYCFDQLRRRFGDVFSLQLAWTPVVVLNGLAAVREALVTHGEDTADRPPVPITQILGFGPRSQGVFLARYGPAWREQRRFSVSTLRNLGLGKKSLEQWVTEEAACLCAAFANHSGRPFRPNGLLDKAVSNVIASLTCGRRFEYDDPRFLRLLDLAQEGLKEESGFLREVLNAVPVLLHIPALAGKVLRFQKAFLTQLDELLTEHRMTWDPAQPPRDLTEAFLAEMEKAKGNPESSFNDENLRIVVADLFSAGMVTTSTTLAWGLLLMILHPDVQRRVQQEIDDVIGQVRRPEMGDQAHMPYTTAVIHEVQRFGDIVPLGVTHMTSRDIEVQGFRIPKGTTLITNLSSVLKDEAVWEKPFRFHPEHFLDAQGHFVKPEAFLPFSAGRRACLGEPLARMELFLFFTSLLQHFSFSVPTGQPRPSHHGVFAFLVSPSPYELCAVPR
Experimental: (§1) Study on Direct Inhibition (DI) of CYP3A4, CYP2D6, CYP2C9, CYP2C19, CYP1A2
(§2) A system of 100 μL human liver microsomes (final concentration: 0.2 mg/mL) was used for direct inhibition under warm incubation. The system contained NADPH (final concentration: 1 mM), 10 μM compound, a positive inhibitor cocktail (Ketoconazole 10 μM, Quinidine: 10 μM, Sulfaphenazole: 100 μM, Naphthoflavone: 10 μM, Tranylcypromene 1000 μM), a negative control 10 μM DMSO and mixed probe substrates (Midazolam 10 μM, Testosterone 100 μM, Dextromethophan 10 μM, Diclofenac 20 μM, Phenetin 100 μM, Mephenytoin 100 μM). The reaction was terminated after incubation for 20 minutes. The relative activity of the enzymes was calculated by measuring the relative production of metabolites.

[2] = target: T2, CYP2C9 (Homo sapiens, UniProt P11712); test: Direct inhibition (DI) of CYP2C9 in human liver microsomes; type: in vitro ADME; details: probe Diclofenac, human liver microsomes 0.2 mg/mL, 10 μM compound, read-out: Direct inhibition (DI) 2C9 (Diclofenac)
T2 construct: A system of 100 μL human liver microsomes; from tissue; host or cells: human liver microsomes
T2 sequence (P11712 whole entry): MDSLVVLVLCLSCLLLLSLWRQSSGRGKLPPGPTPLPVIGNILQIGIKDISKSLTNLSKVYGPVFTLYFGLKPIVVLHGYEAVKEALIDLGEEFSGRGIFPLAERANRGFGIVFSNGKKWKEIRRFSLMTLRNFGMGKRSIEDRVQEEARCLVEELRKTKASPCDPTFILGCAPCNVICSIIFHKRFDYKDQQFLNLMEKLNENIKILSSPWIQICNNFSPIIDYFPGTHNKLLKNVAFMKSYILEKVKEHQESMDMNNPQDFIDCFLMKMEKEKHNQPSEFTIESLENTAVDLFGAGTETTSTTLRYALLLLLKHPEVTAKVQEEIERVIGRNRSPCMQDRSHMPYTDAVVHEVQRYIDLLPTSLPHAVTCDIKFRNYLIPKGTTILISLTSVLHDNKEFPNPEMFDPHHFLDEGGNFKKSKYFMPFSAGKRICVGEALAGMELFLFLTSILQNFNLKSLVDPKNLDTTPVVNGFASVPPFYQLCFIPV
Experimental: as §1, §2

[3] = target: T3, CYP1A2 (Homo sapiens, UniProt P05177); test: Direct inhibition (DI) of CYP1A2 in human liver microsomes; type: in vitro ADME; details: probe Phenacetin, human liver microsomes 0.2 mg/mL, 10 μM compound, read-out: Direct inhibition (DI) 1A2 (Phenacetin)
T3 construct: A system of 100 μL human liver microsomes; from tissue; host or cells: human liver microsomes
T3 sequence (P05177 1-516): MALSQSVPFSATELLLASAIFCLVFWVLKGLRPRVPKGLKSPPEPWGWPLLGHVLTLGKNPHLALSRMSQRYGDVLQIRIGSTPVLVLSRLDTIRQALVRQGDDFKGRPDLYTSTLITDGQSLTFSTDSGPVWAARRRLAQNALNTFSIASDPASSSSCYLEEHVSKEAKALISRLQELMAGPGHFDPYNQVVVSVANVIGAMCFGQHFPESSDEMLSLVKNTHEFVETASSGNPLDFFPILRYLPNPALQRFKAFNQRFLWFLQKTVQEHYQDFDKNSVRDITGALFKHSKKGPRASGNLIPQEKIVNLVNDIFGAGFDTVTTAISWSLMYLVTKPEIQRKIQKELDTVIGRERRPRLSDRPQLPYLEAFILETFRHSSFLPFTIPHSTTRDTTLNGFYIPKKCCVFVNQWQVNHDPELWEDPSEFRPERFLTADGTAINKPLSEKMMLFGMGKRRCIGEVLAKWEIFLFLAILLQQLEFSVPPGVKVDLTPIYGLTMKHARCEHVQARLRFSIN
Experimental: as §1, §2

[4] = target: T4, CYP3A4 (Homo sapiens, UniProt P08684); test: Direct inhibition (DI) of CYP3A4 in human liver microsomes; type: in vitro ADME; details: human liver microsomes 0.2 mg/mL, 10 μM compound
T4 construct: A system of 100 μL human liver microsomes; from tissue; host or cells: human liver microsomes
T4 sequence (P08684 whole entry): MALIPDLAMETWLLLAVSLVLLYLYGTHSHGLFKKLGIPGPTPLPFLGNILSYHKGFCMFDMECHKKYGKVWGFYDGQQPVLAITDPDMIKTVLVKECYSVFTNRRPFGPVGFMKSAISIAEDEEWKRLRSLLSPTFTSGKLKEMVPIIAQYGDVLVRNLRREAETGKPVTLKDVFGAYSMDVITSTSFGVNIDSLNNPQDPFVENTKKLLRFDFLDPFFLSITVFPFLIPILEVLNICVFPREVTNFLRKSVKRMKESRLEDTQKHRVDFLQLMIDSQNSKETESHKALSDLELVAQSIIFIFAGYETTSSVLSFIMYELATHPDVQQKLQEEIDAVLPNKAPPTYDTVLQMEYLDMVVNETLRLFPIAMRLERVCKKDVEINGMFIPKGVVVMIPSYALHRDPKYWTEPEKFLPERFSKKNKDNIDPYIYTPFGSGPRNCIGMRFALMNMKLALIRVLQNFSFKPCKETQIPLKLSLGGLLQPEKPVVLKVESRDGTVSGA
Experimental: as §1, §2

[5] = target: T5, ErbB2 kinase (Homo sapiens, UniProt P04626); test: EGFR/ErbB2 enzymatic experiment (HTRF kinEASE-TK), ErbB2; type: biochemical; details: ErbB2 kinase 0.06 ng/μL, ATP 4 μM; read-out: Kinase IC50 (nM) in vitro ErbB2
T5 construct: The final concentration of ErbB2 kinase was 0.06 ng/μL
T5 sequence (P04626 23-1255): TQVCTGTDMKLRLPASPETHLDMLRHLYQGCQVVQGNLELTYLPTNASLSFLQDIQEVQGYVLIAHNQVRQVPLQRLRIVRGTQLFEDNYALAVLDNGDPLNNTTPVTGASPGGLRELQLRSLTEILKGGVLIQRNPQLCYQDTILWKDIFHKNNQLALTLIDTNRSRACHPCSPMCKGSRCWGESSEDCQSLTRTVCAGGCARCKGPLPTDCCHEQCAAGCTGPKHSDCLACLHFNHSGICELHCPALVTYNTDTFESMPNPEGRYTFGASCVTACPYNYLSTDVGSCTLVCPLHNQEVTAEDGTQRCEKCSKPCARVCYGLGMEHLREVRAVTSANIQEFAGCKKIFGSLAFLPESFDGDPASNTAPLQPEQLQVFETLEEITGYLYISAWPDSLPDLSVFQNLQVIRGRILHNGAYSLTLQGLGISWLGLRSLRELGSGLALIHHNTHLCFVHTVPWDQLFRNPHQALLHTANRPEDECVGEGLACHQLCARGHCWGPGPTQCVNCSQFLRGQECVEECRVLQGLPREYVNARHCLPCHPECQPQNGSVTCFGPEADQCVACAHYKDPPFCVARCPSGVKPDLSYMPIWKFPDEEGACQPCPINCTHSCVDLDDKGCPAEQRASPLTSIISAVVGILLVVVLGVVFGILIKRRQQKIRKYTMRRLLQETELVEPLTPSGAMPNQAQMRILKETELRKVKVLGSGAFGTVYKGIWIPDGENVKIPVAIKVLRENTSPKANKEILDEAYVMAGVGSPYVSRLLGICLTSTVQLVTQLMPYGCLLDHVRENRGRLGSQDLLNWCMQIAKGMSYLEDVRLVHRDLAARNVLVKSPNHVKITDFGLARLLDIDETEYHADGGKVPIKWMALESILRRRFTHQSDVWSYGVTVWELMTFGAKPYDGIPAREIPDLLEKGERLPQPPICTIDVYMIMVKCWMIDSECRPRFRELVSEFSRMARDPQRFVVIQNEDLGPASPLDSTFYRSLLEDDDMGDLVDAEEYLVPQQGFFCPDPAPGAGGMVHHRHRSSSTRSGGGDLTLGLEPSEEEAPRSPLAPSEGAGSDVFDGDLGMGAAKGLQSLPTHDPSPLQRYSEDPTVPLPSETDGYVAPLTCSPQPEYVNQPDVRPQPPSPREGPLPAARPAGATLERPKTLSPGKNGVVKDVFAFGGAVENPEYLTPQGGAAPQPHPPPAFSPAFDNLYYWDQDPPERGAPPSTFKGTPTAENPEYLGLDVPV
Experimental: (§3) EGFR/ErbB2 Enzymatic Experiment
(§4) Firstly, 1× reaction buffer required for the kinase was prepared, then 5× Enzymatic buffer (HEPES 20 mM pH 7.0, NaN3 0.1%, BSA 0.05%, sodium orthovanadate 0.5 mM) was diluted in HTRF kinEASE-TK kit by 1 time with deionized water, and 50 nM Supplement Enzymatic buffer (SEB REAGENT), 1 mM MnCl2, 5 mM MfCl2, 1 mM DTT were added. Secondly, 5× compound was prepared, and 10 mM test compound storage solution was diluted in multiple steps with DMSO in a 96-well compound plate to prepare 100× compound as an initial concentration, which was then used as the first concentration to carry out a 3-fold gradient dilution with DMSO to obtain a total of 10 concentrations. Then 1 μL of gradient diluent was added to 19 μL of 1× reaction buffer to prepare 5× compound for later use. Then 2 μL of 5× compound was transferred from the 96-well plate into a 384-well plate. To the compound-free control wells was added 2 μL of the following liquid: 19 μL of 1× reaction buffer with addition of 1 μL of DMSO. To the blank control well was added 2 μL of 250 mM EDTA. […] In the fourth step of reaction termination, HTRF Detection buffer was used to prepare a mixture of 2×TK Antibody-EU (K) and Sa-XL665, and the amount of TK Antibody-EU (K) was 5 μL per well. After the enzyme reaction was carried out for 30 minutes, 10 μL of the above liquid was added to a 384-well plate, and the reaction was carried out at room temperature for 1 hour. […] RFU665 nM and RFU620 nM were measured, and RFU665 nM/RFU620 nM×10000 was used as final data for analysis.

[6] = system: N87 (human gastric cancer cell NCI-N87); test: In vitro proliferation inhibition assay of cell lines (CellTiter-Glo), N87; type: cell-based; details: N87 cells, 72 hours
Experimental: (§5) In Vitro Proliferation Inhibition Assay of Cell Lines
(§6) 1. Cell culture and inoculation: on the first day of the experiment, normal cultured cells were taken, and in the exponential growth state, after digestion and dispersion, the cell density was then adjusted to 8.8×10^4 cells/mL for BT-474, and 6.6×10^4 cells/mL for N87, and 90 μL of which were inoculated to each well of a 96-well cell culture plate; after the inoculation was completed, the microplate was cultured under the conditions of 37° C. and 5% CO2 overnight. 2. Dosing to the cells: on the second day of the experiment, the microplate was taken out from the incubator, and 10 μL of 10× compound was added to each well of the microplate, setting 2 duplicate wells for each drug concentration and 9 dosing concentrations for each compound. According to different cell lines, the initial concentration of each compound was different. Upon completion of addition, the microplate was placed under the conditions of 37° C. and 5% CO2 for 72 hours. 3. Data acquisition: the microplate was taken out from the incubator and was allowed to equilibrate at room temperature for 30 minutes. 100 μL of CellTiter-Glo® Luminescent Cell Viability Assay reaction solution which had been equilibrated at room temperature was added to each well, and the reaction solution was shaken at 1300 rpm for 2 minutes at room temperature. After that, the microplate was placed in HERAEUS Multifuge X1R centrifuge, centrifuged at 2000 rpm for 1 minute, and allowed to equilibrate at room temperature for 10 minutes. The fluorescence signal value was measured on EnVision™.

[7] = target: EGFR kinase (Homo sapiens, UniProt P00533); test: EGFR/ErbB2 enzymatic experiment (HTRF kinEASE-TK), EGFR; type: biochemical; details: EGFR kinase 0.06 units/μL, ATP 1.65 μM; read-out: Kinase IC50 (nM) in vitro EGFR
Sequence of EGFR kinase (P00533 25-1210): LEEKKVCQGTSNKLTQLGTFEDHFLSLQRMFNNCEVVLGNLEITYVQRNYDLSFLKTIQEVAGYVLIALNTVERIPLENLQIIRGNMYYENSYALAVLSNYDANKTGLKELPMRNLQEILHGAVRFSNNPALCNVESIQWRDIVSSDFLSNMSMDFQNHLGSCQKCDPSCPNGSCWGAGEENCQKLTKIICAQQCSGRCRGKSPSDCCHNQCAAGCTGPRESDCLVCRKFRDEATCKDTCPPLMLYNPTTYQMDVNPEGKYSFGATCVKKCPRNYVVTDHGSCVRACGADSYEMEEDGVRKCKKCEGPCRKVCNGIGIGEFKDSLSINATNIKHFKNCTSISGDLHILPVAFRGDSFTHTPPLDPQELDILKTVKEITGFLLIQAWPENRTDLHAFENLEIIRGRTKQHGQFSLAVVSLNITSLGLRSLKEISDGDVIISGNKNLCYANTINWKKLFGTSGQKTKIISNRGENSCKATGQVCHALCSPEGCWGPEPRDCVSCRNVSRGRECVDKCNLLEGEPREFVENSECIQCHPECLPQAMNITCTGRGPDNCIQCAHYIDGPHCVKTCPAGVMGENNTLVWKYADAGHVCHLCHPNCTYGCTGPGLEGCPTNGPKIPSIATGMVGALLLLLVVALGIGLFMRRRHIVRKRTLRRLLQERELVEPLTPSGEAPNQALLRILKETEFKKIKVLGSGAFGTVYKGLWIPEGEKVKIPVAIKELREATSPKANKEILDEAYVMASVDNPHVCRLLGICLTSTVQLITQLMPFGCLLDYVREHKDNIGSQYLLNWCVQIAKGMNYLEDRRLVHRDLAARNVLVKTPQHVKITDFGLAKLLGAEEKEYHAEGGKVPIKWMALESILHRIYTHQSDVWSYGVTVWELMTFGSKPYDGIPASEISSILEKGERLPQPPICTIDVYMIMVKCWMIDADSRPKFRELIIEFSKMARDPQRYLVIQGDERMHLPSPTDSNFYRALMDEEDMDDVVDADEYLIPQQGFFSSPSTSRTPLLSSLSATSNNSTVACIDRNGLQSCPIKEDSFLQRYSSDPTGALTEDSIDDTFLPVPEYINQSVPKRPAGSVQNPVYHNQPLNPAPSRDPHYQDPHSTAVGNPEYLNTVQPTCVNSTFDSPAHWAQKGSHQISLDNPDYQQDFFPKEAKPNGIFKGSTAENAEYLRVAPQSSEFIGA
Experimental: as §3, §4

[8] = target: T6, CYP2C19 (Homo sapiens, UniProt P33261); test: Direct inhibition (DI) of CYP2C19 in human liver microsomes; type: in vitro ADME; details: probe Mephenytoin, human liver microsomes 0.2 mg/mL, 10 μM compound, read-out: Direct inhibition (DI) 2C19 (Mephenytoin)
T6 construct: A system of 100 μL human liver microsomes; from tissue; host or cells: human liver microsomes
T6 sequence (P33261 whole entry): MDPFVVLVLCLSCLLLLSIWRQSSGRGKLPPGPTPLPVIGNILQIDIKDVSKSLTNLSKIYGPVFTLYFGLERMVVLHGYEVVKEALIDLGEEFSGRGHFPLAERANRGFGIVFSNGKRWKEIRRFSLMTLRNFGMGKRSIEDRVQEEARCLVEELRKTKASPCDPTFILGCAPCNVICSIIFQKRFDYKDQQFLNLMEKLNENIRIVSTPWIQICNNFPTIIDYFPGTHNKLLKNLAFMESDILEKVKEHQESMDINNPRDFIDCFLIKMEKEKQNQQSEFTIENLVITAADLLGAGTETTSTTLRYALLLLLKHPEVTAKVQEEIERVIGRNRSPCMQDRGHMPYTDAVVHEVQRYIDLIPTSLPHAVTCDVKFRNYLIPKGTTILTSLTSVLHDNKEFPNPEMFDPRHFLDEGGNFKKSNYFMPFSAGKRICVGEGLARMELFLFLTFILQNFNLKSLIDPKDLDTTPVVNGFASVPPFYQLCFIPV
Experimental: as §1, §2

[9] = system: BT-474 (human breast cancer cell); test: In vitro proliferation inhibition assay of cell lines (CellTiter-Glo), BT-474; type: cell-based; details: BT-474 cells, 72 hours
Experimental: as §5
as §6, with “Cell culture and inoculation: on the first day of the experiment, normal cultured cells were taken, and in the exponential growth state, after digestion and dispersion, the cell density was then adjusted to 8.8×10^4 cells/mL for BT-474, and 6.6×10^4 cells/mL for N87, and 90 μL of which were inoculated to each well of a 96-well cell culture plate; after the inoculation was completed, the microplate was cultured under the conditions of 37° C. and 5% CO2 overnight.” left out

[10] = probe Midazolam, read-out: Direct inhibition (DI) 3A4 (Midazolam)
[11] = probe Testosterone, read-out: Direct inhibition (DI) 3A4 (testosterone)

| Compound | inhibition at 20 min, 10 µM [1] [%] | inhibition at 20 min, 10 µM [2] [%] | inhibition at 20 min, 10 µM [3] [%] | inhibition at 20 min, 10 µM [4, 10] [%] | inhibition at 20 min, 10 µM [4, 11] [%] | IC50 [5] [nM] | IC50 [6] [nM] | IC50 [7] [nM] | inhibition at 20 min, 10 µM [8] [%] | IC50 [9] [nM] |
| --- | --- | --- | --- | --- | --- | --- | --- | --- | --- | --- |
| CCOc1cc2ncc(C#N)c(Nc3ccc(Oc4cc5nncn5cn4)c(C)c3)c2cc1NC(=O)/C=C/[C@H]1CCCN1 [Final product of Embodiment 32] | 6 | 66 | < 0 | 8 | 11 | 3.13 | 4.2 | 1.06 | 75 | 4 |
| Cc1cc(Nc2ncnc3ccc(NC(=O)/C(F)=C/[C@H]4CCCN4C)cc23)ccc1Oc1cc2nncn2cn1 [Final product of Embodiment 43] | 69 | < 0 | < 0 | < 0 | < 0 | 2.6 | 1.3 | 4.7 | < 0 | 1.8 |
| CCOc1cc2ncc(C#N)c(Nc3ccc(Oc4cc5nncn5cn4)c(C)c3)c2cc1NC(=O)/C=C/[C@H]1CCCN1C [Final product of Embodiment 33] | 3 | 17 | < 0 | 10 | 17 | 3.56 | 3.2 | 2.14 | 49 | 4.2 |
| Cc1cc(Nc2c(C#N)cnc3ccc(NC(=O)/C=C/[C@H]4CCCN4C)cc23)ccc1Oc1cc2nncn2cn1 [Final product of Embodiment 23, (R,E)-N-(4-((4-([1,2,4]triazolo[4,3-c]pyrimidin-7-yloxy)-3-methylphenyl)amino)-3-cyanoquinolin-6-yl)-3-(1-methylpyrrolidin-2-yl)acrylamide] | 13 | 1 | < 0 | < 0 | 18 | 7.56 | 5.43 | 1.62 | 10 | 4.2 |
| CCOc1cc2ncnc(Nc3ccc(Oc4ccn5ncnc5c4)c(C)c3)c2cc1NC(=O)/C(F)=C/[C@@H]1CCCN1C [Final product of Embodiment 47] | 54 | 34 | 35 | 33 | 42 | 4.2 | 3.8 | 38.5 | 47 | 7.1 |
| Cc1cc(Nc2ncnc3ccc(NC(=O)/C=C/[C@H]4CCCN4C)cc23)ccc1Oc1ccn2ccnc2c1 [Final product of Embodiment 11, (R,E)-N-(4-((4-(imidazo[1,2-a]pyridin-7-yloxy)-3-methylphenyl)amino)quinazolin-6-yl)-3-(1-methylpyrrolidin-2-yl)acrylamide] | 87 | 9 | 9 | 5 | 16 | 0.73 | 3.18 | 1.02 | 26 | 3.27 |
| CCOc1cc2ncnc(Nc3ccc(Oc4cc5nncn5cn4)c(C)c3)c2cc1NC(=O)/C=C/[C@H]1CCCN1C [Final product of Embodiment 18, (R,E)-N-(4-((4-([1,2,4]triazolo[4,3-c]pyrimidin-7-yloxy)-3-methylphenyl)amino)-7-ethoxyquinazolin-6-yl)-3-(1-methylpyrrolidin-2-yl)acrylamide] | 4 | 4 | 5 | 12 | 23 | 0.513 | 1.58 | 0.358 | 8 | 2.1 |
| Cc1cc(Nc2ncnc3ccc(NC(=O)/C(F)=C\[C@H]4CCCN4C)cc23)ccc1Oc1ccn2ncnc2c1 [Final product of Embodiment 40] | 16 | < 0 | < 0 | 3 | 9 |  |  |  | 18 |  |
